# Results taken from patent US20130040908A1, “SUBSTITUTION DERIVATIVES OF N6-BENZYLADENOSINE-5' -MONOPHOSPHATE, METHODS OF PREPARATION THEREOF, USE THEREOF AS MEDICAMENTS, AND THERAPEUTIC PREPARATIONS CONTAINING THESE COMPOUNDS” (BIOAPEX, S.R.O., priority 2010, published 2013).
# How the values were obtained:
# Human lymphocytes = test: Immunosuppressive activity, 3H-thymidine incorporation in concanavalin A activated lymphocytes; format: cell-based; settings: 72 hours, [3H]-TdR
# Description: One of the most important parameters of specific cellular immunity is the proliferative response of lymphocytes to antigens or polyclonal mitogens. The majority of normal mammalian peripheral lymphocytes comprise resting cells. Antigens or nonspecific polyclonal mitogens have the capacity to activate lymphoid cells and this is accompanied by dramatic changes of intracellular metabolism (mitochondrial activity, protein synthesis, nucleic acids synthesis, formation of blastic cells and cellular proliferation). […] Variety of in vitro assays was developed to measure proliferative response of lymphocytes. The most commonly used is ^3H-thymidine incorporation method.
# During cell proliferation, DNA has to be replicated before the cell is divided into two daughter cells. This close association between cell doublings and DNA synthesis is very attractive for assessing cell proliferation. If labelled DNA precursors are added to the cell culture, cells that are about to divide incorporate the labelled nucleotide into their DNA. Traditionally, those assays usually involve the use of radiolabelled nucleosides, particularly tritiated thymidine ([^3H]-TdR). The amount of [^3H]-TdR incorporated into the cellular DNA is quantified by liquid scintillation counting. Human heparinized peripheral blood was obtained from healthy volunteers by cubital vein punction. The blood was diluted in PBS (1:3) and mononuclear cells were separated by centrifugation in Ficoll-Hypaque density gradient (Pharmacia, 1.077 g/ml) at 2200 rpm for 30 minutes. Following centrifugation, lymphocytes were washed in PBS and resuspended in cell culture medium (RMPI 1640, 2 mM glutamine, 100 U/ml penicillin, 100 μg/ml streptomycin, 10% fetal calf serum and sodium bicarbonate).
# The cells were diluted at target density of 1.100.000 cells/ml and were added by pipette (180 μl) into 96-well microtiter plates. Four-fold dilutions of the intended test concentration were added at time zero in 20 μl aliquots to the microtiter plate wells. Usually, test compound was evaluated at six 4-fold dilutions. In routine testing, the highest well concentration was 266.7 μM. All drug concentrations were examined in duplicates. All wells with exception of unstimulated controls were activated with 50 of concanavalin A (25 μg/ml). Incubations of cells with test compounds lasted for 72 hours at 37° C., in 5% CO2 atmosphere and 100% humidity. At the end of incubation period, the cells were assayed by using the [^3H]-TdR:
# Cell cultures were incubated with 0.5 μCi (20 μl of stock solution 500 μCi/ml per well for 6 hours at 37° C. and 5% CO2. The automated cell harvester was used to lyse cells in water and adsorb the DNA onto glass-fiber filters in the format of microtiter plate. The DNA incorporated [^3H]-TdR was retained on the filter while unincorporated material passes through. The filters were dried at room temperature overnight, sealed into a sample bag with 10-12 ml of scintillant. The amount of [^3H]-TdR present in each filter (in cpm) was determined by scintillation counting in a Betaplate liquid scintillation counter. The effective dose of immunosuppressant (ED) was calculated using the following equation: ED=(CCPMdrug exposed well/mean CCPMcontrol wells)×100%. The ED50 value, the drug concentration inhibiting proliferation of 50% of lymphocytes, was calculated from the obtained dose response curves.
# [1] = test system: CEM (T-lymphoblastoid leukemia); test: Calcein AM cytotoxicity assay, CEM; format: cell-based; settings: 72 hours
# Description: (§1) Because toxic compounds negatively influence metabolic processes in cells, many standard cytotoxicity assays are based on measurement of metabolisation rate of various artificial substrates. Resulting product is then quantified e.g. by means of spectrometry. The assays can be easily modified for use in 96-well plates. For evaluation of cytotoxic effect of the novel substituted 9-substituted cytokinin derivatives of this invention, a microtiter assay based on quantification of metabolisation of Calcein AM was used. The assay is widely used in drug screening programs and in chemosensitivity testing. In the living cells, Calcein AM is enzymatically hydrolysed and accumulation of resulting calcein is manifested by green fluorescence.
# (§2) Normal human fibroblasts BJ were used as a control for routine screening of the compounds. The cells were kept in Nunc/Corning 80 cm^2 plastic bottles and grown in cell culture medium (DMEM containing 5 g/l glucose, 2 mM glutamine, 100 U/ml penicillin, 100 μg/ml streptomycine, 10% fetal bovine serum and sodium hydrogencarbonate), the compounds were prepared according to the procedure of the present invention.
# (§3) The cell suspensions were prepared and diluted according to the particular cell type and the expected target cell density (2.500-30.000 cells per well based on cell growth characteristics) and pippetted (80 μl) into 96-well plates. […] Tested compound was added in total volume of 20 μl of water at time zero. Usually, test compound was evaluated at six 3-fold dilutions. […] All drug concentrations were tested in triplicates. […] At the end of incubation period Calcein AM in PBS was added into final concentration of 1 μg/ml. After another 1 hour of incubation fluorescence (FD) was measured with the Labsystem FIA Reader Fluoroscan Ascent (UK). Growth inhibition (GI) was estimated using the following equitation: GI=(mean FDdrug exposed wells−mean FDblank)/(mean FDcontrol wells−mean FDblank)×100%.
# [2] = test system: K-562 (human erythroleukemia); test: Calcein AM cytotoxicity assay, K-562; format: cell-based
# Description: as §1, §2, §3
# [3] = test system: HL-60 (promyelocytic leukemia); test: Calcein AM cytotoxicity assay, HL60; format: cell-based, human
# Description: as §1, §2, §3
# [4] = test system: G-361 (human malignant melanoma); test: Calcein AM cytotoxicity assay, G-361; format: cell-based; settings: G-361, 72 hours
# Description: as §1, §2, §3
# MCF-7 (breast carcinoma) = test: Calcein AM cytotoxicity assay, MCF7; format: cell-based; settings: MCF7, 72 hours
# Description: as §1, §2, §3
# [5] = test system: HOS (human osteogenic sarcoma); test: Calcein AM cytotoxicity assay, HOS; format: cell-based; settings: 72 hours
# Description: as §1, §2, §3
# [6] = test system: Normal human fibroblasts BJ; test: Calcein AM cytotoxicity assay, BJ fibroblasts; format: cell-based; settings: 72 hours
# Description: as §1, §2, §3
Molecule,Human lymphocytes ED50 (Human lymphocytes) [µM],GI50 [1] [µM],"GI50 ([2]; K-562, 72 hours) [µM]","GI50 ([3]; HL60, 72 hours) [µM]",GI50 (MCF-7 (breast carcinoma)) [µM],other results
"O=P(O)(O)OC[C@H]1O[C@@H](n2cnc3c(NCc4cccc(Cl)c4O)ncnc32)[C@H](O)[C@@H]1O [2-hydroxy-3-chlorobenzylamino, 6-(2-hydroxy-3-chlorobenzylamino)purine riboside-5′-monophosphate]",3.2,,,,,
"COc1ccc(CNc2ncnc3c2ncn3[C@@H]2O[C@H](COP(=O)(O)O)[C@@H](O)[C@H]2O)c(O)c1 [2-hydroxy-4-methoxybenzylamino, 6-(2-hydroxy-4-methoxybenzylamino)purine riboside-5′-monophosphate]",2.1,,,,,
"O=P(O)(O)OC[C@H]1O[C@@H](n2cnc3c(NCc4ccc(O)c(O)c4)ncnc32)[C@H](O)[C@@H]1O [3,4-dihydroxybenzylamino, 6-(3,4-dihydroxybenzylamino)purine riboside-5′-monophosphate]",9.4,,,,,
"O=P(O)(O)OC[C@H]1O[C@@H](n2cnc3c(NCc4ccccc4F)ncnc32)[C@H](O)[C@@H]1O [Compound 1, 6-(2-fluorobenzylamino)purine riboside-5′-monophosphate]",6.3,3.9,31.7,3.3,,
"O=P(O)(O)OC[C@H]1O[C@@H](n2cnc3c(NCc4cccc(F)c4)ncnc32)[C@H](O)[C@@H]1O [Compound 2, 6-(3-fluorobenzylamino)purine riboside-5′-monophosphate]",11.5,3.2,7.2,0.83,14.7,GI50 [4]: 14.6 µM
"O=P(O)(O)OC[C@H]1O[C@@H](n2cnc3c(NCc4ccc(F)cc4)ncnc32)[C@H](O)[C@@H]1O [Compound 3, 6-(4-fluorobenzylamino)purine riboside-5′-monophosphate]",13.4,1.2,6.1,0.69,12.3,GI50 [5]: 12.1 µM
"O=P(O)(O)OC[C@H]1O[C@@H](n2cnc3c(NCc4ccccc4Cl)ncnc32)[C@H](O)[C@@H]1O [Compound 4, 6-(2-chlorobenzylamino)purine riboside-5′-monophosphate]",8.7,1.9,56,1.4,,
"O=P(O)(O)OC[C@H]1O[C@@H](n2cnc3c(NCc4cccc(Cl)c4)ncnc32)[C@H](O)[C@@H]1O [Compound 5, 6-(3-chlorobenzylamino)purine riboside-5′-monophosphate]",3.2,1.5,23.4,0.5,,
"O=P(O)(O)OC[C@H]1O[C@@H](n2cnc3c(NCc4ccc(Cl)cc4)ncnc32)[C@H](O)[C@@H]1O [Compound 6, 6-(4-chlorobenzylamino)purine riboside-5′-monophosphate]",3.3,4.9,12.6,,,
"O=P(O)(O)OC[C@H]1O[C@@H](n2cnc3c(NCc4ccccc4Br)ncnc32)[C@H](O)[C@@H]1O [Compound 7, 6-(2-bromobenzylamino)purine riboside-5′-monophosphate]",,2.3,9.7,5.9,45.6,
"Cc1ccccc1CNc1ncnc2c1ncn2[C@@H]1O[C@H](COP(=O)(O)O)[C@@H](O)[C@H]1O [Compound 12, 6-(2-methylbenzylamino)purine riboside-5′-monophosphate]",7.3,11.4,,3.1,144,
"Cc1cccc(CNc2ncnc3c2ncn3[C@@H]2O[C@H](COP(=O)(O)O)[C@@H](O)[C@H]2O)c1 [Compound 13, 6-(3-methylbenzylamino)purine riboside-5′-monophosphate]",7.5,11.6,160,6.6,71.7,
"COc1ccccc1CNc1ncnc2c1ncn2[C@@H]1O[C@H](COP(=O)(O)O)[C@@H](O)[C@H]1O [Compound 15, 6-(2-methoxybenzylamino)purine riboside-5′-monophosphate]",,2.4,8.4,2.1,113,GI50 [5]: 20.1 µM
"COc1cccc(CNc2ncnc3c2ncn3[C@@H]2O[C@H](COP(=O)(O)O)[C@@H](O)[C@H]2O)c1 [Compound 16, 6-(3-methoxybenzylamino)purine riboside-5′-monophosphate]",,4.6,122,5.1,48.1,
"O=P(O)(O)OC[C@H]1O[C@@H](n2cnc3c(NCc4cccc(O)c4)ncnc32)[C@H](O)[C@@H]1O [Compound 22, 6-(3-hydroxybenzylamino)purine riboside-5′-monophosphate]",12.8,49.8,92.4,19,108,
O=P(O)(O)OC[C@H]1O[C@@H](n2cnc3c(NCc4ccc(Cl)cc4Cl)ncnc32)[C@H](O)[C@@H]1O [Compound 24],,81.2,81.5,72.4,122,
"O=P(O)(O)OC[C@H]1O[C@@H](n2cnc3c(NCc4ccc(Cl)c(Cl)c4)ncnc32)[C@H](O)[C@@H]1O [Compound 25, 6-(3,4-dichlorobenzylamino)purine riboside-5′-monophosphate]",,3.1,6.1,1,82.8,GI50 [6]: 132 µM; GI50 [5]: 112 µM
"O=P(O)(O)OC[C@H]1O[C@@H](n2cnc3c(NCc4ccc(F)c(Cl)c4)ncnc32)[C@H](O)[C@@H]1O [Compound 41, 6-(3-chloro-4-fluorobenzylamino)purine riboside-5′-monophosphate]",,1.4,4.3,3.1,99.1,
"Nc1ncnc2c1ncn2[C@@H]1O[C@H](COP(=O)(O)O)[C@@H](O)[C@H]1O [adenosine-5′-monophosphate, reference compound]",,> 167,,,,"GI50 ([4]; Homo sapiens): > 167 µM; GI50 ([2]; Homo sapiens, K562, K-562, 72 hours): > 167 µM; GI50 ([6]; Homo sapiens, Fibroblast): > 167 µM; GI50 (MCF-7 (breast carcinoma); Homo sapiens): > 167 µM; GI50 ([5]; Homo sapiens): > 167 µM; GI50 ([3]; Homo sapiens, HL-60, HL60, 72 hours): > 167 µM"
zeatin riboside-5′-monophosphate [reference compound],,> 167,> 167,> 167,> 167,GI50 [4]: > 167 µM; GI50 [6]: > 167 µM; GI50 [5]: > 167 µM
